Data: ChEMBL document CHEMBL5042540, “Discovery of Pteridine-7(8H)-one Derivatives as Potent and Selective Inhibitors of Bruton's Tyrosine Kinase (BTK)” (J Med Chem, 2022)

What was measured:
[1] = in vivo; conditions: Sprague-Dawley, rat, iv, 1 mg/kg
[2] = in vivo; conditions: Sprague-Dawley, rat, iv, 1 mg/kg; remark: listed apart in the source
[3] = in vivo; conditions: Sprague-Dawley, rat, iv, 1 mg/kg; remark: listed apart in the source
[4] = in vivo; conditions: Sprague-Dawley, rat, iv, 1 mg/kg; remark: listed apart in the source
[5] = in vivo; conditions: Sprague-Dawley, rat, po, 10 mg/kg
[6] = in vivo; conditions: Sprague-Dawley, rat, po, 10 mg/kg; remark: listed apart in the source

C=CC(=O)Nc1cccc(-n2c(=O)c(C3CCCCC3)nc3cnc(Nc4cccc(OCCOC)c4)nc32)c1
half-life [1]: 26.4 min
clearance [2]: 58.2 mL/min/kg
AUC(0-t) [3]: 290 ng·h/mL
Vd [4]: 1.16 L/kg
AUC(0-t) [5]: 66.9 ng·h/mL
bioavailability [6]: 2.31%
